Experimental data published in ChEMBL document CHEMBL1201862, “PubChem BioAssay data set” (2004).
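Test compounds were applied to cells in 96-well plates for 48 hours at 5 doses. At the GI50, growth is halved.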 The source made the active and inactive calls. Cut-off read from the data, not from the text of the source: active = GI50 up to about 1.1 µM and inactive = higher.

Experiments:
Assay in all cases: NCI tumour cell line growth inhibition, 48 h
U-251 = tested on: U-251
TK-10 = tested on: TK-10
PC-3 = tested on: PC-3
SK-MEL-28 = tested on: SK-MEL-28
SW-620 = tested on: SW-620
OVCAR-8 = tested on: OVCAR-8
SK-MEL-5 = tested on: SK-MEL-5
COLO 205 = tested on: COLO 205
SNB-75 = tested on: SNB-75
HL-60 = tested on: HL-60
M14 = tested on: M14
NCI-H522 = tested on: NCI-H522
HCC 2998 = tested on: HCC 2998
MDA-MB-435 = tested on: MDA-MB-435
HT-29 = tested on: HT-29
SR = tested on: SR
EKVX = tested on: EKVX
NCI/ADR-RES = tested on: NCI/ADR-RES
RXF 393 = tested on: RXF 393
NCI-H226 = tested on: NCI-H226
T47D = tested on: T47D
UACC-257 = tested on: UACC-257
HOP-62 = tested on: HOP-62
CAKI-1 = tested on: CAKI-1
NCI-H460 = tested on: NCI-H460
LOX IMVI = tested on: LOX IMVI
SN12C = tested on: SN12C
Malme-3M = tested on: Malme-3M
SF-539 = tested on: SF-539
NCI-H23 = tested on: NCI-H23
SK-OV-3 = tested on: SK-OV-3
SF-295 = tested on: SF-295
SF-268 = tested on: SF-268
DU-145 = tested on: DU-145
UACC-62 = tested on: UACC-62
IGROV-1 = tested on: IGROV-1
KM12 = tested on: KM12
MDA-N = tested on: MDA-N
MCF7 = tested on: MCF7
UO-31 = tested on: UO-31
Hs-578T = tested on: Hs-578T
OVCAR-3 = tested on: OVCAR-3
MDA-MB-231 = tested on: MDA-MB-231
786-0 = tested on: 786-0
CCRF-CEM = tested on: CCRF-CEM
BT-549 = tested on: BT-549
RPMI-8226 = tested on: RPMI-8226
MOLT-4 = tested on: MOLT-4
K562 = tested on: K562
SNB-19 = tested on: SNB-19
OVCAR-4 = tested on: OVCAR-4
HCT-15 = tested on: HCT-15
SK-MEL-2 = tested on: SK-MEL-2
A549 = tested on: A549

Q: How did the GI50 (U-251) turn out when `CC1CC(C#N)=C2NCCCCN2C1=O` (centres undefined) was run?
A: The GI50 was > 100 µM (inactive).

Q: And the GI50 (TK-10)?
A: The GI50 was > 100 µM (inactive).

Q: And the GI50 (PC-3)?
A: Its GI50 is > 100 µM (inactive).

Q: And the GI50 (SK-MEL-28)?
A: Its GI50 is > 100 µM (inactive).

Q: What about the GI50 (SW-620) of the same molecule?
A: The GI50 was > 100 µM (inactive).

Q: And the GI50 (OVCAR-8)?
A: Its GI50 is > 100 µM (inactive).

Q: What about the GI50 (SK-MEL-5) of the same molecule?
A: The GI50 was > 100 µM (inactive).

Q: And the GI50 (COLO 205)?
A: The GI50 was > 100 µM (inactive).

Q: And the GI50 (SNB-75)?
A: Its GI50 is > 100 µM (inactive).

Q: What about the GI50 (HL-60) of the same molecule?
A: Its GI50 is > 100 µM (inactive).

Q: And the GI50 (M14)?
A: Its GI50 is > 100 µM (inactive).

Q: What about the GI50 (NCI-H522) of the same molecule?
A: Its GI50 is > 100 µM (inactive).

Q: And the GI50 (HCC 2998)?
A: The GI50 was > 100 µM (inactive).

Q: What about the GI50 (MDA-MB-435) of the same molecule?
A: Its GI50 is > 100 µM (inactive).

Q: And the GI50 (HT-29)?
A: Its GI50 is > 100 µM (inactive).

Q: And the GI50 (SR)?
A: Its GI50 is > 100 µM (inactive).

Q: What about the GI50 (EKVX) of the same molecule?
A: Its GI50 is > 100 µM (inactive).

Q: And the GI50 (NCI/ADR-RES)?
A: The GI50 was > 100 µM (inactive).

Q: And the GI50 (RXF 393)?
A: Its GI50 is > 100 µM (inactive).

Q: And the GI50 (NCI-H226)?
A: The GI50 was > 100 µM (inactive).

Q: And the GI50 (T47D)?
A: The GI50 was > 100 µM (inactive).

Q: And the GI50 (UACC-257)?
A: Its GI50 is > 100 µM (inactive).

Q: What about the GI50 (HOP-62) of the same molecule?
A: The GI50 was > 100 µM (inactive).

Q: What about the GI50 (CAKI-1) of the same molecule?
A: Its GI50 is > 100 µM (inactive).

Q: And the GI50 (NCI-H460)?
A: Its GI50 is > 100 µM (inactive).

Q: What about the GI50 (LOX IMVI) of the same molecule?
A: The GI50 was > 100 µM (inactive).

Q: What about the GI50 (SN12C) of the same molecule?
A: Its GI50 is > 100 µM (inactive).

Q: What about the GI50 (Malme-3M) of the same molecule?
A: Its GI50 is > 100 µM (inactive).

Q: What about the GI50 (SF-539) of the same molecule?
A: The GI50 was > 100 µM (inactive).

Q: What about the GI50 (NCI-H23) of the same molecule?
A: Its GI50 is > 100 µM (inactive).

Q: What about the GI50 (SK-OV-3) of the same molecule?
A: Its GI50 is > 100 µM (inactive).

Q: What about the GI50 (SF-295) of the same molecule?
A: Its GI50 is > 100 µM (inactive).

Q: What about the GI50 (SF-268) of the same molecule?
A: The GI50 was > 100 µM (inactive).

Q: And the GI50 (DU-145)?
A: The GI50 was > 100 µM (inactive).

Q: What about the GI50 (UACC-62) of the same molecule?
A: The GI50 was > 100 µM (inactive).

Q: What about the GI50 (IGROV-1) of the same molecule?
A: Its GI50 is > 100 µM (inactive).

Q: What about the GI50 (KM12) of the same molecule?
A: Its GI50 is > 100 µM (inactive).

Q: And the GI50 (MDA-N)?
A: The GI50 was > 100 µM (inactive).

Q: And the GI50 (MCF7)?
A: Its GI50 is > 100 µM (inactive).

Q: And the GI50 (UO-31)?
A: Its GI50 is > 100 µM (inactive).

Q: And the GI50 (Hs-578T)?
A: Its GI50 is > 100 µM (inactive).

Q: What about the GI50 (OVCAR-3) of the same molecule?
A: Its GI50 is > 100 µM (inactive).

Q: What about the GI50 (MDA-MB-231) of the same molecule?
A: Its GI50 is > 100 µM (inactive).

Q: And the GI50 (786-0)?
A: Its GI50 is > 100 µM (inactive).

Q: What about the GI50 (CCRF-CEM) of the same molecule?
A: Its GI50 is > 100 µM (inactive).

Q: What about the GI50 (BT-549) of the same molecule?
A: The GI50 was > 100 µM (inactive).

Q: What about the GI50 (RPMI-8226) of the same molecule?
A: Its GI50 is > 100 µM (inactive).

Q: What about the GI50 (MOLT-4) of the same molecule?
A: Its GI50 is > 100 µM (inactive).

Q: And the GI50 (K562)?
A: The GI50 was > 100 µM (inactive).

Q: What about the GI50 (SNB-19) of the same molecule?
A: The GI50 was > 100 µM (inactive).

Q: And the GI50 (OVCAR-4)?
A: The GI50 was > 100 µM (inactive).

Q: What about the GI50 (HCT-15) of the same molecule?
A: The GI50 was > 100 µM.

Q: And the GI50 (SK-MEL-2)?
A: Its GI50 is > 100 µM (inactive).

Q: What about the GI50 (A549) of the same molecule?
A: The GI50 was > 100 µM (inactive).
